This note sets out measurements from patent US8486945B2, “Heterocyclic inhibitors of an Hh-signal cascade, medicinal compositions based thereon and methods for treating diseases caused by the aberrant activity of an Hh-signal system” (priority 2007, dated 2013).

pIC50: −log10 of the molar value. Read-outs that look alike come from different tables or passages of the source.

Data set [1] deals with transcription factor Gli1. Nature of the data set: Suppression of transcription factor Gli1 induction in Panc1 cell culture. It counts as cell-based, human. Particulars: 20 mkM, 72 hours, Panc1 cells. As for the experimental part:
Examples of suppression of the transcription factor Gli1 induction in human's tumor cell culture Panc1 by compounds of the general formulas I-VIII are presented in FIG. 2. […] This effect could be enhanced at combined action of the tested compound and kinas inhibitor (oncolitic Iressa). For caning out the experiments the tumour cell culture Panc1 was cultivated for 72 hours in the presence of 20 mkM of tested compounds.
Measurements of expression level Gli1 were carried out by determination of HGli mRNA amount according to the method [Lauth M., Bergstrom A., Shimokawa T., Toftgard R. Inhibition of GLI-mediated transcription and tumor cell growth by small-molecule antagonists. PNAS. 2007, 104(20): 8455-8460].

A short description of data set [2]: Maximum tolerated dose, intraperitoneal once daily for 5 days. Particulars: mouse, in vivo, ip, male SHK mice. The procedure:
Maximum tolerated dose of compounds was determined in tests on male mice of SHK line by intraperitoneal once daily introduction of the compounds in doses from 30 to 300 mg/kg during 5 days. 8 Mice were used in each group. Weight of mice and also animals' mortality were registered. […] According to the classification of chemical compounds toxicity the investigated compounds may be referred to low-toxic substances.

The subject of the next data set is Hh-signalling cascade. The data set can be described thus: Inhibition of SHh-induced alkaline phosphatase in C3H10T1/2 cells (Hh-signalling cascade inhibition). It counts as cell-based. The note with it: Mus musculus, C3H 10T1/2, half maximal inhibition of SHh (0.3 μg/ml) stimulation of cell alkaline phosphatase. In a few lines: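 C3H10T1/2 cells preincubated 30 min with compound (screen at 10 μM; IC50 from triplicate dilution series), then stimulated with 0.3 μg/ml recombinant SHh for 3 days at 37 °C. Alkaline phosphatase measured by CSPD luminescence in 0.2% Triton-X100 lysates; IC50 = half-maximal inhibition of SHh-induced activity.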

The nature of data set [3]: Pharmacokinetic investigation in mice (PO and IP). It counts as in vivo, mice of BALB/c line. Particulars: BALB/c, mouse, plasma; for half-life: read-out: T½. The procedure: Pharmacokinetic investigations were carried out on mice of BALB/c line. All animals were divided into three groups in a random manner: two experimental groups were used for pharmacokinetic analyses at peroral (PO) and intraperitoneal (IP) ways of substance introduction in various doses, and the control group for getting intact blood plasma.
Blood samples were taken by decapitation of animals before introduction of medicament (control samples), and by decapitation in 5, 15, 30, 60, 120 and 240 minutes after introduction of medicament. Three mice were used for each time interval point.
Analysis of samples comprising compounds of the general formulas I-VIII was carried out by Chromato-Mass-Spectrometry method. The data were analysed by means of software package WinNonLin (Pharsight, CIIIA).
Oral bioavailability % F of compounds of the general formulas I-VIII was calculated on the basis of experimental results according to the following equation: % F=[AUC0→t,(PO)/AUC0→t,(IP)]×100%.

The nature of data set [4]: Pharmacokinetic investigation in mice (PO and IP). Type of data set: in vivo, mice of BALB/c line. The note with it: BALB/c, mouse, plasma, read-out: % F (PO/IV).
The target of another data set is T1, Smo receptors (Homo sapiens, UniProt Q99835).
T1 construct: expressed in transfected cells; host or cells: HEK cells (Smo-HEK)
The data set can be described thus: Displacement of bodipy-cyclopamine from Smo receptors in Smo-HEK cells. Type of data set: binding. The note with it: half-maximal displacement of bodipy-cyclopamine. As for the experimental part:
Binding parameters to Smo receptors for some of compounds of the general formulas I-VIII are presented in table 11 as the values of half-maximal displacement of cyclopamine labelled with fluorescent dye (bodipy-cyclopamine). The tests were carried out for Smo-HEK cells, comprising artificially expressed protein Smo.

In data set [5] the test system is human's pancreatic carcinoma Panc1. Nature of the data set: Antitumour activity in Panc1 xenograft mice model. It counts as in vivo, mice Balb-c/nude. As for the experimental part:
Example of antitumour activity of compound III-1029 towards human's pancreatic carcinoma model Panc1, implanted to immunodeficient transgenic (naked) mice Balb-c/nude, is presented in FIG. 3. Mice of 8 weeks age which were implanted with pancreatic carcinoma by injection of 4×10^6 tumour cells were used in the experiments. Introduction of tested compound (peroral 50 mg/kg, daily during 14 days) was started in 7 days after transplantation of tumour (an average size of tumour was 30-60 mm^3). As a result of the tests it was shown that under the said way of introduction compound III-1029 suppresses tumour growth on 67% in comparison with the control group (mice with implanted tumour not treated with compound III-1029).
Example of antitumour activity of compounds III-1017 and III-1011 towards human's pancreatic carcinoma Panc1, implanted to immunodeficient transgenic (naked) mice Balb-c/nude, is presented in FIG. 4. Mice of 8 weeks age which were implanted with pancreatic carcinoma by injection of 4×10^7 tumour cells were used in the experiments. Introduction of tested compound (intraperitoneally […], daily during 21 days) was started in 8 days after transplantation of tumour (an average size of tumour is 60-140 mm^3). As a result of the tests it was shown that under the said way of introduction compounds III-1017 and III-1011 suppress tumour growth on 27 and 46% in comparison with the control group (mice with implanted tumour not treated with the tested compounds).

Setting [6] is: intraperitoneally 100 m mg/kg, daily during 21 days.

T1 sequence (Q99835 28-787): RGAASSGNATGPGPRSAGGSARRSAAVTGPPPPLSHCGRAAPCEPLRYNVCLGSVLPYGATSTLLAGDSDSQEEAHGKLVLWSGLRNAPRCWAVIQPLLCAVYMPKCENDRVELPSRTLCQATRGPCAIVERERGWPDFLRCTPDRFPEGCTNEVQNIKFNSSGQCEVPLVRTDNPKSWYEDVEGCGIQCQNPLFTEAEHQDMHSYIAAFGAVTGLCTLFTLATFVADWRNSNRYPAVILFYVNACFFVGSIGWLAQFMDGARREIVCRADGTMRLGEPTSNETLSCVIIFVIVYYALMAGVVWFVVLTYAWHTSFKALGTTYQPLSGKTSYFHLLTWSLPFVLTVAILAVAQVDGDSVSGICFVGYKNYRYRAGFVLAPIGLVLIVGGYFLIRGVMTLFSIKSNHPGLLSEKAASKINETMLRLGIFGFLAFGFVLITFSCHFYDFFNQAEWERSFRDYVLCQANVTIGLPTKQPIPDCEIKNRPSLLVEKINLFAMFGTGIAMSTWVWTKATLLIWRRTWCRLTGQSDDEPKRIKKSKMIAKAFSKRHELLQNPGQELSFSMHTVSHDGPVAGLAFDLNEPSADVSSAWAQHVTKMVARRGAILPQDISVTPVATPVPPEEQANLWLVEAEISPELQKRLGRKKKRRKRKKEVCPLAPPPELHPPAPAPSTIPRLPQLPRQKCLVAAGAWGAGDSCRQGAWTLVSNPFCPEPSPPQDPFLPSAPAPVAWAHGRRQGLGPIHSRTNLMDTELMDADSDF

Broadly, the MTD is the largest dose that counted as tolerated. A higher MTD goes with better tolerability. The pIC50 is the negative decadic logarithm of the IC50, by convention in mol/L. A higher pIC50 goes with a low IC50. In general, Cmax refers to the highest concentration seen after dosing. As for `COc1cccc(N2CCN(C(=O)Cn3nc(C)c4c(C)n(-c5ccccc5)nc4c3=O)CC2)c1` [I-1001, 2-Phenyl-3,4-dimethyl-6-{2-[4-(3-methoxyphenyl)piperazin-1-yl]-2-oxoethyl}-2,6-dihydro-7H-pyrazolo[3,4-d]pyridazin-7-one], in data set [1], the “Suppression of Gli1 expression (HGli mRNA)” value (from here on “Suppression … (HGli mRNA)”) is given as “block effectively Hh-signalling cascade”. For the same compound, in data set [2], the MTD at 5 days is above 200 mg/kg. In the data set on Hh-signalling cascade, the pIC50 was above 6.30. Moreover, the half-life in data set [3] (PO, 5 mg/Kg) amounted to 2.08 h. The Cmax in data set [3] (PO, 20 mg/Kg) stood at 4460 ng/mL. In data set [4], the bioavailability was found to be 35%.

The compound `Cc1cccn2cc(-c3ccc(NC(=O)c4ccccc4F)cc3)nc12` [III-1011, 2-Fluoro-N-[4-(8-methylimidazo[1,2-a]pyridin-2-yl)phenyl]benzamide] gave a pIC50 on Smo receptors of 7.03. Further, in data set [2], the MTD at 5 days is above 200 mg/kg. Also, in data set [3] (IP, 5 mg/Kg), the peak level (Cmax) was 1040 ng/mL and the half-life is 0.733 h. Moreover, in data set [3] (PO, 5 mg/Kg), the Cmax was 564 ng/mL and the half-life was 0.967 h. Moreover, in data set [5] (setting [6]), the “Suppression of tumour growth in comparison with the control group” value (“Suppression of tumour growth” below) is 46%. In addition, the bioavailability in data set [4] was found to be 64%.

In data set [2], `Cc1ccn2cc(-c3cccc(NC(=O)c4sc(-c5ccccc5)nc4C)c3)nc2c1` [III-1017, 4-Methyl-2-phenylthiazol-5-carboxylic acid [3-(7-methylimidazo[1,2-a]pyridin-2-yl)phenyl]amide] had an MTD at 5 days above 200 mg/kg. The compound further had a negative logarithm of the IC50 (pIC50) in the data set with Hh-signalling cascade above 6.30. Further, in data set [3] (IP, 5 mg/Kg), the peak concentration (Cmax) worked out at 357 ng/mL and the half-life was 1.12 h. For the same compound, in data set [3] (PO, 5 mg/Kg), the Cmax was 398 ng/mL and the half-life was 0.917 h. The “Suppression of tumour growth” value in data set [5] (setting [6]) amounted to 27%. The bioavailability in data set [4] amounted to 19%.

On to `Cc1cccn2cc(-c3ccc(NC(=O)c4ccccc4Br)cc3)nc12` [III-1029, N-[4-(8-Methylimidazo[1,2-a]pyridin-2-yl)phenyl]-2-bromobenzamide], for which the “Suppression … (HGli mRNA)” value in data set [1] is on record as “block effectively Hh-signalling cascade”. In addition, the results for the pIC50 at Smo receptors and in the data set with Hh-signalling cascade were 6.59 and above 6.30, respectively. In data set [2], this compound showed an MTD at 5 days above 200 mg/kg. Moreover, in data set [3] (PO, dose not given), the half-life worked out at 0.983 h. In addition, in data set [5] (peroral 50 mg/kg, daily during 14 days), the “Suppression of tumour growth” value stood at 67%. Moreover, the bioavailability in data set [4] worked out at 75%.

`CN1CCN(C(=O)C2CCN(C(=O)c3cc4sccc4n3Cc3ccc(Cl)cc3)CC2)CC1` [V-1017, [4-(4-Chlorobenzyl)-4H-thieno[3,2-b]pyrrol-5-yl][4-(4-methylpiperazine-1-carbonyl)-piperidin-1-yl]methanone] showed a pIC50 on Smo receptors of 7.40. This compound also displayed an MTD at 5 days in data set [2] above 200 mg/kg. In data set [3] (IP, 5 mg/Kg), the Cmax stood at 289 ng/mL and the half-life is 1.13 h. Besides, in data set [3] (PO, 20 mg/Kg), the highest level (Cmax) was 758 ng/mL and the half-life came out at 2.28 h. The bioavailability in data set [4] is 63%.

`O=C(c1cc2sccc2n1Cc1ccc(Cl)cc1)N1CCC(C(=O)N2CCCCCC2)CC1` [V-1043, 1-[4-(4-Chlorobenzyl)-4H-thieno[3,2-b]pyrrole-5-carbonyl]piperidine-4-carboxylic acid hexamethylene amide]: the pIC50 on Smo receptors was 7.16; in the data set with Hh-signalling cascade, above 5.30. The compound further registered an MTD at 5 days in data set [2] above 200 mg/kg. Further, the Cmax amounted to 167 ng/mL in data set [3] (IP, 5 mg/Kg) and 71 ng/mL in data set [3] (PO, 5 mg/Kg). Besides, in data set [3] (IP, 5 mg/Kg), the half-life amounted to 1.07 h. The bioavailability in data set [4] was 3%.

One may read the melting point as the temperature of the solid-liquid transition. Take `CCOc1ccc(NC(=O)c2ccnc(N3CCC(C(=O)Nc4ccc(C(C)C)cc4)CC3)c2)cc1` [VI-1005, 3,4,5,6-Tetrahydro-2H-[1,2′]bipyridinyl-4,4′-carboxylic acid 4′-[(4-ethoxyphenyl)amide] 4-[(4-isopropylphenyl)amide]]: the melting point was 243 to 245 °C. For the same compound, the pIC50 with Hh-signalling cascade is above 5.30.

Regarding `CCOc1ccc(NC(=O)c2ccnc(N3CCC(C(=O)Nc4ccccc4OC)CC3)c2)cc1` [VI-1006, 3,4,5,6-Tetrahydro-2H-[1,2′]bipyridinyl-4,4′-carboxylic acid 4′-[(4-ethoxyphenyl)amide] 4-[(2-methoxyphenyl)amide]], the melting point was 182 to 184 °C. For the same compound, the pIC50 in the data set with Hh-signalling cascade was above 5.30.

As to `Cc1ccc(S(=O)(=O)N2CCCc3cc(C(=O)Nc4c(C)cc(C)cc4C)ccc32)cc1` [VII-1001, 1-Tosyl-1,2,3,4-tetrahydroquinoline-6-carboxylic acid (2,4,6-mesityl)amide], the melting point fell in the range of 252 to 255 °C. Also, the “Suppression … (HGli mRNA)” value in data set [1] was “block effectively Hh-signalling cascade”. The compound also gave a pIC50 in the data set on Hh-signalling cascade above 6.30.

For `CN1CCc2c(sc(NC(=O)C3CCCCC3)c2-c2nc3ccccc3s2)C1.Cl` [VIII-1001, Cyclohexanecarboxylic acid (3-benzo[d]thiazol-2-yl-6-methyl-4,5,6,7-tetrahydrothieno[2,3-c]pyridin-2-yl)amide], in data set [2], the MTD at 5 days is above 100 mg/kg. In the data set on Hh-signalling cascade, this compound had a pIC50 above 6.30. In data set [3] (IP, 100 mg/Kg), the Cmax was found to be 45 ng/mL and the half-life was 4.9 h.
